In assay [1] the target is Bone morphogenetic protein receptor type-2 (Homo sapiens) (UniProt Q13873). The assay can be described thus: Inhibition of wild-type human partial length BMPR2 (R179 to Q526 residues) expressed in mammalian expression system at 10 uM by Kinomescan method relative to control.
In assay [2] the test system is Serine/threonine-protein kinase B-raf (Homo sapiens), P15056 [V600E]. Nature of the assay: Inhibition of human partial length BRAF V600E mutant (S429 to E741 residues) expressed in mammalian expression system at 10 uM by Kinomescan method relative to control.
For assay [3], the target named is Cyclin-dependent kinase 15 (Homo sapiens) (UniProt Q96Q40). The assay can be described thus: Inhibition of wild-type human full length PFTAIRE2 (M1 to W384 residues) expressed in bacterial expression system at 10 uM by Kinomescan method relative to control.
In assay [4] the target is Inhibitor of nuclear factor kappa-B kinase subunit beta (Homo sapiens) (UniProt O14920). The assay can be described thus: Inhibition of wild-type human full length IKK-beta (M1 to S756 residues) expressed in mammalian expression system at 10 uM by Kinomescan method relative to control.
Assay [5] has as its target Receptor-type tyrosine-protein kinase FLT3 (Homo sapiens) (UniProt P36888). Nature of the assay: Inhibition of wild-type human partial length autoinhibited FLT3 (H564 to Y969 residues) expressed in mammalian expression system at 10 uM by Kinomescan method relative to control.
Assay [6] addresses Serine/threonine-protein kinase PAK 5 (Homo sapiens) (UniProt Q9P286). Nature of the assay: Inhibition of wild-type human partial length PAK7 (Y400 to H719 residues) expressed in bacterial expression system at 10 uM by Kinomescan method relative to control.
Assay [7] deals with Phosphatidylinositol 4,5-bisphosphate 3-kinase catalytic subunit delta isoform (Homo sapiens) (UniProt O00329). Nature of the assay: Inhibition of wild-type human partial length PIK3CD (R108 to Q1044 residues) expressed in mammalian expression system at 10 uM by Kinomescan method relative to control.
For assay [8], the system named is Tyrosine-protein kinase ABL1 (Homo sapiens), P00519 [M351T]. The assay can be described thus: Inhibition of human phosphorylated ABL1 M351T mutant (S229 to K512 residues) expressed in mammalian expression system at 10 uM by Kinomescan method relative to control.
Assay [9] has as its target Mitogen-activated protein kinase 7 (Homo sapiens) (UniProt Q13164). The assay can be described thus: Inhibition of wild-type human partial length ERK5 (M1 to A409 residues) expressed in bacterial expression system at 10 uM by Kinomescan method relative to control.
In assay [10] the target is Mitogen-activated protein kinase 15 (Homo sapiens) (UniProt Q8TD08). Nature of the assay: Inhibition of wild-type human partial length ERK8 (M1 to P437 residues) expressed in bacterial expression system at 10 uM by Kinomescan method relative to control.
Assay [11] addresses High affinity nerve growth factor receptor (Homo sapiens) (UniProt P04629). Nature of the assay: Inhibition of wild-type human partial length TRKA (G475 to G790 residues) expressed in mammalian expression system at 10 uM by Kinomescan method relative to control.
The target of assay [12] is Phosphatidylinositol 4,5-bisphosphate 3-kinase catalytic subunit alpha isoform (Homo sapiens) (UniProt P42336). Nature of the assay: Inhibition of wild-type human partial length PIK3CA (R108 to N1068 residues) expressed in mammalian expression system at 10 uM by Kinomescan method relative to control.
For assay [13], the target named is Ephrin type-A receptor 2 (Homo sapiens) (UniProt P29317). Nature of the assay: Inhibition of wild-type human partial length EPHA2 (T593 to V891 residues) expressed in bacterial expression system at 10 uM by Kinomescan method relative to control.
Assay [14] has as its target Serine/threonine-protein kinase TAO2 (Homo sapiens) (UniProt Q9UL54). Nature of the assay: Inhibition of wild-type human partial length TAOK2 (M1 to A320 residues) expressed in mammalian expression system at 10 uM by Kinomescan method relative to control.
In assay [15] the target is Tyrosine-protein kinase Srms (Homo sapiens) (UniProt Q9H3Y6). Nature of the assay: Inhibition of wild-type human partial length SRMS (L208 to P488 residues) expressed in mammalian expression system at 10 uM by Kinomescan method relative to control.
The target of assay [16] is Serine/threonine-protein kinase 25 (Homo sapiens) (UniProt O00506). The assay can be described thus: Inhibition of wild-type human partial length YSK1 (V14 to H295 residues) expressed in bacterial expression system at 10 uM by Kinomescan method relative to control.
Assay [17] concerns the target Cyclin-dependent kinase 11A (Homo sapiens) (UniProt Q9UQ88). The assay can be described thus: Inhibition of wild-type human partial length CDC2L2 (D391 to K730 residues) expressed in bacterial expression system at 10 uM by Kinomescan method relative to control.
Assay [18] deals with Homeodomain-interacting protein kinase 1 (Homo sapiens) (UniProt Q86Z02). Nature of the assay: Inhibition of wild-type human partial length HIPK1 (M146 to I555 residues) expressed in mammalian expression system at 1 uM by Kinomescan method relative to control.
The target of assay [19] is Microtubule-associated serine/threonine-protein kinase 1 (Homo sapiens) (UniProt Q9Y2H9). Nature of the assay: Inhibition of wild-type human partial length MAST1 (S346 to V730 residues) expressed in mammalian expression system at 1 uM by Kinomescan method relative to control.
The test system of assay [20] is Tyrosine-protein kinase ABL1 (Homo sapiens), P00519 [Q252H]. The assay can be described thus: Inhibition of human non-phosphorylated ABL1 Q252H mutant (S229 to K512 residues) expressed in mammalian expression system at 1 uM by Kinomescan method relative to control.
Assay [21] deals with Serine/threonine-protein kinase WNK3 (Homo sapiens) (UniProt Q9BYP7). The assay can be described thus: Inhibition of wild-type human partial length WNK3 (M1 to D434 residues) expressed in mammalian expression system at 1 uM by Kinomescan method relative to control.
Assay [22] addresses Tyrosine-protein kinase BTK (Homo sapiens, UniProt Q06187). Nature of the assay: Inhibition of BTK in human PBMC assessed as reduction in CD69 expression.
Assay [23] addresses Mitogen-activated protein kinase 13 (Homo sapiens) (UniProt O15264). Nature of the assay: Inhibition of wild-type human full length p38-delta (M1 to L365 residues) expressed in bacterial expression system at 1 uM by Kinomescan method relative to control.
In assay [24] the target is Wee1-like protein kinase 2 (Homo sapiens) (UniProt P0C1S8). Nature of the assay: Inhibition of wild-type human partial length WEE2 (M204 to K492 residues) expressed in bacterial expression system at 1 uM by Kinomescan method relative to control.
Assay [25] deals with Mitogen-activated protein kinase kinase kinase 3 (Homo sapiens) (UniProt Q99759). The assay can be described thus: Inhibition of wild-type human partial length MAP3K3 (E320 to Y626 residues) expressed in mammalian expression system at 1 uM by Kinomescan method relative to control.
The target of assay [26] is Serine/threonine-protein kinase RIO2 (Homo sapiens) (UniProt Q9BVS4). The assay can be described thus: Inhibition of wild-type human partial length RIOK2 (M1 to D313 residues) expressed in mammalian expression system at 1 uM by Kinomescan method relative to control.
The target in assay [27] is Tyrosine-protein kinase Yes (Homo sapiens) (UniProt P07947). The assay can be described thus: Inhibition of wild-type human partial length YES (T257 to L543 residues) expressed in bacterial expression system at 1 uM by Kinomescan method relative to control.

The values below come from ChEMBL document CHEMBL4387741, “Optimization of novel reversible Bruton's tyrosine kinase inhibitors identified using Tethering-fragment-based screens” (Bioorg Med Chem, 2019).

Microtubule-associated serine/threonine-protein kinase 1 (Homo sapiens), sequence (Q9Y2H9 whole entry, looked up, the tested form may be a part): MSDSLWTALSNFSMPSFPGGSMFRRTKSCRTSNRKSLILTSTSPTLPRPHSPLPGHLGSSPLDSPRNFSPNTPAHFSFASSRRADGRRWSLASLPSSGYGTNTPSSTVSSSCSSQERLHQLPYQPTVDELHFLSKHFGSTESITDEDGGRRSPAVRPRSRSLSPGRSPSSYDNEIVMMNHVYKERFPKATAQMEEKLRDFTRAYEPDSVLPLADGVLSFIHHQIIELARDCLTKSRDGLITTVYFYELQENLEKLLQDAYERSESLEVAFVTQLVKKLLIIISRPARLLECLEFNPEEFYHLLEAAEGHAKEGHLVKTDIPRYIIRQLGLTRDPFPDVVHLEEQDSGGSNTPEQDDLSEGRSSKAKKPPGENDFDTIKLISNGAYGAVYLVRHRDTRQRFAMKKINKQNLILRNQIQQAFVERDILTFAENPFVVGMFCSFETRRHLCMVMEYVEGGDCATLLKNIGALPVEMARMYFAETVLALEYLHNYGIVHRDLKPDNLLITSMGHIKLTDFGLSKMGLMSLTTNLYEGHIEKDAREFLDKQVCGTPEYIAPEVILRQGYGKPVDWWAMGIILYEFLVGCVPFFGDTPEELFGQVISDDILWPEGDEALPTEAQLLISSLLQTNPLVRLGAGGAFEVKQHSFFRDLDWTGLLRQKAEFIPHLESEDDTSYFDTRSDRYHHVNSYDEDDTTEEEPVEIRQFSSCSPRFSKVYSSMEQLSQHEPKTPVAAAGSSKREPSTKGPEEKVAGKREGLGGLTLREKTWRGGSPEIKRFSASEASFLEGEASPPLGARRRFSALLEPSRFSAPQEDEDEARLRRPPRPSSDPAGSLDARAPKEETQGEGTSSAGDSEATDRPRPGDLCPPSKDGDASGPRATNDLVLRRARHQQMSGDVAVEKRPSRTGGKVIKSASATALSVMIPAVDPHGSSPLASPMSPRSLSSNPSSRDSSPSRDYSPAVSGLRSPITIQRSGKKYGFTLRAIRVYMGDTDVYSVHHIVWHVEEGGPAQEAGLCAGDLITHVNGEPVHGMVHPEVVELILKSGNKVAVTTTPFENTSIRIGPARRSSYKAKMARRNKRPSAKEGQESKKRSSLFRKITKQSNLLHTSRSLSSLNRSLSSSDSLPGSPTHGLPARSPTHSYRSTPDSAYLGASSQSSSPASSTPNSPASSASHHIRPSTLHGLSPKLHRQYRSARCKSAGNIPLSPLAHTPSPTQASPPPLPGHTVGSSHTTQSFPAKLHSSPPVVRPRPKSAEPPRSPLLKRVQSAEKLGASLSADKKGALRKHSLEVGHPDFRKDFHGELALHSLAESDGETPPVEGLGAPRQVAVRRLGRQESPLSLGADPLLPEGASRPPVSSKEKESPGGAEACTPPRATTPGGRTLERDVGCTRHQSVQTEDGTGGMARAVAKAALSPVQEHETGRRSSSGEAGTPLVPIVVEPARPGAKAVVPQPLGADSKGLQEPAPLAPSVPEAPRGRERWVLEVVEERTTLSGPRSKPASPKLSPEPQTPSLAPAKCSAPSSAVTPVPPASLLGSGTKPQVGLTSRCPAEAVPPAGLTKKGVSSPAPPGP
Serine/threonine-protein kinase PAK 5 (Homo sapiens), sequence (Q9P286 whole entry, looked up, the tested form may be a part, canonical isoform): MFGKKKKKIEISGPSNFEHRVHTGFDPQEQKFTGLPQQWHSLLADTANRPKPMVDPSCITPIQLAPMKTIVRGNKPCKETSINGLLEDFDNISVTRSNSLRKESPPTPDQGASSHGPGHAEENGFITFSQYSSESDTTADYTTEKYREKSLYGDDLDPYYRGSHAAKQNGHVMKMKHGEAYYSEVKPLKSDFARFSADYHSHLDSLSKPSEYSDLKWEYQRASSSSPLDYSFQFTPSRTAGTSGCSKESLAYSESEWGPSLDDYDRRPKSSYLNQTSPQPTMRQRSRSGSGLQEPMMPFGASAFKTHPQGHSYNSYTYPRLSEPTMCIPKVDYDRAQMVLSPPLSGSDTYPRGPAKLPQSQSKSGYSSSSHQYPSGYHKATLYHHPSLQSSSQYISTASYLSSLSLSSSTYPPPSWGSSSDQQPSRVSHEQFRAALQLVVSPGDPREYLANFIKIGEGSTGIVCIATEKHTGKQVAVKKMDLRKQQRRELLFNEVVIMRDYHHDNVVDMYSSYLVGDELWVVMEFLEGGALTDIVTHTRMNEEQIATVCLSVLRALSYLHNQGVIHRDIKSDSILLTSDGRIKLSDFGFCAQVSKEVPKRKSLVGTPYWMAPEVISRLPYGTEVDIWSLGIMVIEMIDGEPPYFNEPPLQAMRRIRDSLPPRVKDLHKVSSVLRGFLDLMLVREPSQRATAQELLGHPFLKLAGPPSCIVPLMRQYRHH
Serine/threonine-protein kinase RIO2 (Homo sapiens), sequence (Q9BVS4 whole entry, looked up, the tested form may be a part): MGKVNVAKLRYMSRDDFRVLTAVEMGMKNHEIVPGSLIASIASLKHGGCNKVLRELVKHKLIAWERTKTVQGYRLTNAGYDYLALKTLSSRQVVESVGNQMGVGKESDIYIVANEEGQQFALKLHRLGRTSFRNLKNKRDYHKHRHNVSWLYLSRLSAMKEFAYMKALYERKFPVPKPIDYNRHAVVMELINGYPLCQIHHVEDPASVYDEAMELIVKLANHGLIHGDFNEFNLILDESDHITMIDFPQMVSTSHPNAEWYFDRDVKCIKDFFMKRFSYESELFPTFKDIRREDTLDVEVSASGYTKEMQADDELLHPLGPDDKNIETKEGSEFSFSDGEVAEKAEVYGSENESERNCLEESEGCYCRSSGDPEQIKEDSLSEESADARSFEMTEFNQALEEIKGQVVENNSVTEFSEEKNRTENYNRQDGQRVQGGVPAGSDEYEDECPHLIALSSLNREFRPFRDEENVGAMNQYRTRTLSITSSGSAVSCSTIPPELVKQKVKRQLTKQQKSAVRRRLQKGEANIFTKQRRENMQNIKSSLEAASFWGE
Tyrosine-protein kinase Srms (Homo sapiens), sequence (Q9H3Y6 whole entry, the tested form may be a part): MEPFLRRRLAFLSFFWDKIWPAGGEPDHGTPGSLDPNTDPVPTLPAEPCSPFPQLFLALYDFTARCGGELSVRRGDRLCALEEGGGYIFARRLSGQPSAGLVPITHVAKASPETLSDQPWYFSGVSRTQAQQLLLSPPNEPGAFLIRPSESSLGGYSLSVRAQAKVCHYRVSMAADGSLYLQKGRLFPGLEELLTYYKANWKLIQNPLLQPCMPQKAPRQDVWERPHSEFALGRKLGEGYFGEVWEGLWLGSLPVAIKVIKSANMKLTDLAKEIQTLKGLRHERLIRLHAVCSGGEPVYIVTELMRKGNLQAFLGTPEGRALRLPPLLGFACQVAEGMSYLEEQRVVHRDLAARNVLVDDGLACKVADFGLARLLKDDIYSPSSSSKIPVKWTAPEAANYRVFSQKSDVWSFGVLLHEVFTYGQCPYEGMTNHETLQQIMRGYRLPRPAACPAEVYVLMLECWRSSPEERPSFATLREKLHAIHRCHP
Ephrin type-A receptor 2 (Homo sapiens), sequence (P29317 whole entry, the tested form may be a part): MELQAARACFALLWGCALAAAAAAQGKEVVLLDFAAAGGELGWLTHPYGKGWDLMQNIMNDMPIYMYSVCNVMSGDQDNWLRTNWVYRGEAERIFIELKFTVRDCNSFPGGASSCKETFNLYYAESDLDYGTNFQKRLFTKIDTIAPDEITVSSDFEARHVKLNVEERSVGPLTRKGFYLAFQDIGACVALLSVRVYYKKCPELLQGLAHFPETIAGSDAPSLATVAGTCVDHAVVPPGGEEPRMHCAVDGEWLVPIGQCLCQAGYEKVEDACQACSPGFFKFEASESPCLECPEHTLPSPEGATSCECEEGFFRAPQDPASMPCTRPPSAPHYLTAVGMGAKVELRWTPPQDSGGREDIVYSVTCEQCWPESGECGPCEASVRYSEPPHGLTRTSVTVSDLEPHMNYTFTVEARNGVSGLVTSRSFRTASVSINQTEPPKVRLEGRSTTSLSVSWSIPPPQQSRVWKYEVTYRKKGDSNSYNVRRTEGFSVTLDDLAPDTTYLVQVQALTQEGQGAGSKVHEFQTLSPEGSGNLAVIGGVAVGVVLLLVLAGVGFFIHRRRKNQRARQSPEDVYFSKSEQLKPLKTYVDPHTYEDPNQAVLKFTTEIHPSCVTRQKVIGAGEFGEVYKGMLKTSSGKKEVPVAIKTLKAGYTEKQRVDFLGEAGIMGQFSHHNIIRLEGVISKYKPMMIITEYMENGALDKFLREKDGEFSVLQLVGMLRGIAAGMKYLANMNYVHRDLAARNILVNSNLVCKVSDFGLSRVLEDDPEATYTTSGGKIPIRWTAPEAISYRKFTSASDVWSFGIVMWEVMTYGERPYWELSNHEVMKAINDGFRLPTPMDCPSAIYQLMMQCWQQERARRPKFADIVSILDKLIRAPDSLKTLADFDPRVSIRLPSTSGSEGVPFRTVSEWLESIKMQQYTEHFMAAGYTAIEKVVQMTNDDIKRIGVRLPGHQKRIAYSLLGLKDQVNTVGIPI
Mitogen-activated protein kinase kinase kinase 3 (Homo sapiens), sequence (Q99759 whole entry, the tested form may be a part): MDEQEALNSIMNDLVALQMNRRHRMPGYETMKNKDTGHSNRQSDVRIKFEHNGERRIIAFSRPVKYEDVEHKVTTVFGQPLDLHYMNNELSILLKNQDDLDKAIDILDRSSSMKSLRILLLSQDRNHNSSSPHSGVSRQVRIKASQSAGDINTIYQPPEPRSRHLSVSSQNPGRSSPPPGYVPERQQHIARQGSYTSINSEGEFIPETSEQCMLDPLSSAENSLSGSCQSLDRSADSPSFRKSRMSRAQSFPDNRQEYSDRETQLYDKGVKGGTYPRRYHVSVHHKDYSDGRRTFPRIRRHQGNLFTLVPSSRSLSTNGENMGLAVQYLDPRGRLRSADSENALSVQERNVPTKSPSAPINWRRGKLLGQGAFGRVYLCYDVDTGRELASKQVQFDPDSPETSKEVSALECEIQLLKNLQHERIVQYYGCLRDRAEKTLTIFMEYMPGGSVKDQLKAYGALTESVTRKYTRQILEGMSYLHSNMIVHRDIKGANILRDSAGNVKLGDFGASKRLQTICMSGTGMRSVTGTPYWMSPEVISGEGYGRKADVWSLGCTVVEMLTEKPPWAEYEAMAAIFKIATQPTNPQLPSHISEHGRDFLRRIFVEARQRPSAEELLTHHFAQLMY

For the compound `O=C(Nc1cccc([C@H]2CCCN(c3ncnc4[nH]ccc34)C2)c1)Nc1ccccc1N1CCCC1`, the inhibition is 51% in [1]; 16% in assay [2]; 93% in assay [3]; 25% in [4]; 72% in assay [5]; 69% in assay [6]. In addition, the inhibition in assay [7] was 99%; in [8], 71%; in [9], 100%; in assay [10], 99%; in assay [11] it was 26%; in assay [12] it was 99%. Moreover, the inhibition in [13] worked out at 50%; in [14], 100%; in assay [15], 65%; in assay [16] it was 100%; in assay [17], 49%.

Take `O=C(Nc1cccc([C@@H]2CN(c3ncnc4[nH]ccc34)CCN2CCO)c1)Nc1c(F)cccc1N1CCCC1`: the inhibition was 80% in assay [18]; 93% in assay [19]; 55% in assay [20]; 61% in assay [21]; 100% in assay [23]; 93% in assay [24]. Moreover, the results for the inhibition in assay [25], in assay [26] and in [27] were 42%, 92% and 67%, respectively. The 50% inhibitory concentration (IC50) in assay [22] stood at 240 nM.
